Each structure is given as a SMILES string.

The results in this text go back to patent US8853281B2, “Cysteine protease inhibitors” (Medivir UK Ltd, priority 2008, dated 2014).

Assay type in all cases: biochemical
One assay concerns the target T1, human cathepsin S (Homo sapiens, UniProt P25774).
T1 construct: made in house; host or cells: baculovirus expression system
The assay is described as follows: Cathepsin S Ki determination (boc-Val-Leu-Lys-AMC fluorescent substrate). The following applies: baculovirus-expressed human cathepsin S 2 nM, pH 6.5, competitive inhibition fit; read-out: Ki Cat. S. The protocol: Cathepsin S Ki Determination
The assay uses baculovirus-expressed human cathepsin S and the boc-Val-Leu-Lys-AMC fluorescent substrate available from Bachem in a 384 well plate format, in which 7 test compounds can be tested in parallel with a positive control comprising a known cathepsin S inhibitor comparator.
280 μl/well of 12.5% DMSO are added to rows B-H of two columns of a 96 deep well polypropylene plate. 70 μl/well of substrate is added to row A. 2×250 μl/well of assay buffer (100 mM Na phosphate, 100 mM NaCl, pH 6.5) is added to row A, mixed, and double diluted down the plate to row H.
100 μl/well of assay buffer is added to columns 2-5 and 7-12 of 4 rows of a 96 well V bottom polypropylene plate. 200 μl/well of assay buffer is added to columns 1 and 6.
The first test compound prepared in DMSO is added to column 1 of the top row, typically at a volume to provide between 10 and 30 times the initially determined rough Ki. The rough Ki is calculated from a preliminary run in which 10 μl/well of 1 mM boc-VLK-AMC ( 1/10 dilution of 10 mM stock in DMSO diluted into assay buffer) is dispensed to rows B to H and 20 μl/well to row A of a 96 well Microfluor™ plate. 2 μl of each 10 mM test compound is added to a separate well on row A, columns 1-10. Add 90 μl assay buffer containing 1 mM DTT and 2 nM cathepsin S to each well of rows B-H and 180 μl to row A. Mix row A using a multichannel pipette and double dilute to row G. Mix row H and read in the fluorescent spectrophotometer. The readings are Prism data fitted to the competitive inhibition equation, setting S=100 μM and KM=100 μM to obtain an estimate of the Ki, up to a maximum of 100 μM.
The second test compound is added to column 6 of the top row, the third to column 1 of the second row etc. Add 1 μl of comparator to column 6 of the bottom row. Mix column 1 and double dilute to column 5. Mix column 6 and double dilute to column 10.
Using an 8-channel multistepping pipette set to 5×10 μl, distribute 10 μl/well of substrate to the 384 well assay plate. Distribute the first column of the substrate dilution plate to all columns of the assay plate starting at row A. The tip spacing of the multichannel pipette will correctly skip alternate rows. Distribute the second column to all columns starting at row B.
Using a 12-channel multistepping pipette set to 4×10 μl, distribute 10 μl/well of inhibitor to the 384 well assay plate. Distribute the first row of the inhibitor dilution plate to alternate rows of the assay plate starting at A1. The tip spacing of the multichannel pipette will correctly skip alternate columns. Similarly, distribute the second, third and fourth rows to alternate rows and columns starting at A2, B1 and B2 respectively.
Mix 20 ml assay buffer and 20 μl 1M DTT. Add sufficient cathepsin S to give 2 nM final concentration.
Using the a distributor such as a Multidrop 384, add 30 μl/well to all wells of the assay plate and read in fluorescent spectrophotomoter such as an Ascent.
Fluorescent readings, (excitation and emission wavelengths 390 nm and 460 nm respectively, set using bandpass filters) reflecting the extent of enzyme cleavage of the fluorescent substrate, […] the inhibitor, are linear rate fitted for each well.
Fitted rates for all wells for each inhibitor are fitted to the competitive inhibition equation using SigmaPlot 2000 to determine V, Km and Ki values.
(§1) Potential inhibitors are screened using the above assay with variable concentrations of test compound. Reactions were initiated by addition of enzyme to buffered solutions of substrate and inhibitor. Ki values were calculated according to equation 1.
(§2) [formula] where v0 is the velocity of the reaction, V is the maximal velocity, S is the concentration of substrate with Michaelis constant of KM, and I is the concentration of inhibitor.

The target in another assay is T2, cathepsin K (Homo sapiens, UniProt P43235).
T2 construct: made in house; host or cells: not fixed: E coli, Pichia or Baculovirus systems named as options
T2 sequence (P43235 115-329): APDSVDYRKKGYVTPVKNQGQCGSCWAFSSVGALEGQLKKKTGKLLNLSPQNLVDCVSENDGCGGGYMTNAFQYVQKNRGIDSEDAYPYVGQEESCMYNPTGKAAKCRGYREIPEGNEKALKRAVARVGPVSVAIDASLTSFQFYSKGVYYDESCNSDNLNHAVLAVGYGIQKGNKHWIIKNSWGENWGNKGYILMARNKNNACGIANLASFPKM
The assay is described as follows: Determination of cathepsin K proteolytic catalytic activity (H-D-Ala-Leu-Lys-AMC fluorogenic substrate). The following applies: human recombinant enzyme 5 nM, ambient temperature; read-out: Ki Cat. K. As for the experimental part:
Determination of Cathepsin K Proteolytic Catalytic Activity
Convenient assays for cathepsin K are carried out using human recombinant enzyme, such as that described in PDB.
DE Homo sapiens cathepsin K (pycnodysostosis), mRNA (cDNA clone MGC:23107
The recombinant cathepsin K can be expressed in a variety of commercially available expression systems including E coli, Pichia and Baculovirus systems. The purified enzyme is activated by removal of the prosequence by conventional methods.
Standard assay conditions for the determination of kinetic constants used a fluorogenic peptide substrate, typically H-D-Ala-Leu-Lys-AMC, and were determined in either 100 mM Mes/Tris, pH 7.0 containing 1 mM EDTA and 10 mM 2-mercaptoethanol or 100 mMNa phosphate, imM EDTA, 0.1% PEG4000 pH 6.5 or 100 mM Na acetate, pH 5.5 containing 5 mM EDTA and 20 mM cysteine, in each case optionally with […] as stabiliser. The enzyme concentration used was 5 nM. The stock substrate solution was prepared at 10 mM in DMSO. Screens were carried out at a fixed substrate concentration of 60 μM and detailed kinetic studies with doubling dilutions of substrate from 250 μM. The total DMSO concentration in the assay was kept below 3%. All assays were conducted at ambient temperature. Product fluorescence (excitation at 390 nm, emission at 460 nm) was monitored with a Labsystems Fluoroskan Ascent fluorescent plate reader. Product progress curves were generated over 15 minutes following generation of AMC product.
as §1, §2

The next assay deals with human cathepsin L (Homo sapiens, UniProt P07711). The experiment in a line: Cathepsin L Ki (H-D-Val-Leu-Lys-AMC substrate). The following applies: human cathepsin L 5 nM, sodium acetate pH 5.5; read-out: Ki Cat. L. As for the experimental part: The procedure above with the following amendments is used for the determination of Ki for cathepsin L.
The enzyme is commercially available human cathepsin L (for example Calbiochem). The substrate is H-D-Val-Leu-Lys-AMC available from Bahcem. The assay buffer is 100 mM sodium acetate 1 mM EDTA, pH5.5) The DMSO stock (10 mM in 100% DMSO) is diluted to 10% in assay buffer. Enzyme is prepared at 5 nM concentration in assay buffer plus 1 mM dithiothreitol just before use. 2 ul of 10 mM inhibitor made up in 100% DMSO is dispensed into row A. 10 μl of 50 μM substrate (= 1/200 dilution of 10 mM stock in DMSO, diluted in assay buffer).
as §1, §2

Chain of human cathepsin L (P07711 114-333): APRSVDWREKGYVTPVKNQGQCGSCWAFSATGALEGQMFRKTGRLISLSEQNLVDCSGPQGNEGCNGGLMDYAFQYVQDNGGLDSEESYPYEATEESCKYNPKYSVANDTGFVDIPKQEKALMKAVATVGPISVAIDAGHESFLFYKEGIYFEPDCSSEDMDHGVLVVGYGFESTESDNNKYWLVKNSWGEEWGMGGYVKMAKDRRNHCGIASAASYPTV
T1 sequence (P25774 115-331): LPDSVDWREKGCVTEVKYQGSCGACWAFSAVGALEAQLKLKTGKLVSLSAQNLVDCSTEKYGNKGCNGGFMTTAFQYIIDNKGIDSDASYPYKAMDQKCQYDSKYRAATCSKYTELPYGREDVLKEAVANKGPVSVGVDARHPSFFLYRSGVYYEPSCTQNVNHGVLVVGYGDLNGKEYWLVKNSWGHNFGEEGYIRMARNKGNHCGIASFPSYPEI

For `COC1CC(NC(=O)C(CC2(C)CCC2)NC(=O)N2CCOCC2)(C(=O)C(=O)NC2CC2)C1` (single isomer, unassigned) [Example 122], the Ki came out at 3.9 nM on human cathepsin S, 1000 nM on cathepsin K and 3800 nM on human cathepsin L.

As for `CC1(C[C@H](NC(=O)N2CCOCC2)C(=O)NC2(C(=O)C(=O)NC3CC3)CCC2)CCCC1` [Example 2], the Ki on human cathepsin S is 2.3 nM; at cathepsin K it was 3500 nM; on human cathepsin L it was 7100 nM.

In the case of `Cn1ccc(NC(=O)C(=O)C2(NC(=O)[C@H](CC3(C)CCCC3)NC(=O)N3CCOCC3)CCC2)n1` [Example 6], the Ki is 0.19 nM at human cathepsin S, 460 nM on cathepsin K and 600 nM on human cathepsin L.

In the case of `CC1(C[C@H](NC(=O)c2ccoc2)C(=O)NC2(C(=O)C(=O)NC3CC3)CC(F)(F)C2)CCCC1` [Example 27], the Ki on human cathepsin S is 0.79 nM; at cathepsin K it was 2300 nM; on human cathepsin L it was 12000 nM.

Consider `CC1(C[C@H](NC(=O)N2CCOCC2)C(=O)NC2(C(=O)C(=O)NCCCCl)CCC2)CCCC1` [Example 35], for which the Ki turned out to be 2 nM on human cathepsin S, 3500 nM on cathepsin K and 6300 nM at human cathepsin L.

Turning to `O=C(NC1CC1)C(=O)C1(NC(=O)[C@H](CC2(F)CCCC2)NC(=O)c2ccc(O)c(F)c2)CC(F)(F)C1` [Example 50, N-[1-(1-Cyclopropylaminooxalyl-3,3-difluoro-cyclobutylcarbamoyl)-2-(1-fluoro-cyclopentyl)-ethyl]-3-fluoro-4-hydroxy-benzamide], the results for the Ki at human cathepsin S, on cathepsin K and on human cathepsin L were 1 nM, 2400 nM and 3100 nM, respectively.

For `Cn1ccc(NC(=O)C(=O)C2(NC(=O)[C@H](CC3(C)CCCC3)NC(=O)C3CC3)CC(F)C2)n1` (stereo partly drawn) [Example 60], the Ki on human cathepsin S is 0.24 nM; on cathepsin K it was 360 nM; at human cathepsin L it was 1700 nM.

In the case of `CNC(=O)C(=O)C1(NC(=O)[C@H](CC(C)(C)C)NC(=O)c2ccc(NS(=O)(=O)c3ccccc3)cc2)CCC1` [Example 75], the Ki at human cathepsin S is 0.59 nM; at cathepsin K it was 310 nM; at human cathepsin L, 14000 nM.

As for `Cn1ccc(NC(=O)C(=O)C2(NC(=O)[C@H](CC3CCCCC3)NC(=O)N3CCOCC3)CC(F)(F)C2)n1` [Example 111], the values for the Ki at human cathepsin S, on cathepsin K and at human cathepsin L were 0.65 nM, 3600 nM and 200 nM, respectively.

Consider `Cn1ccc(NC(=O)C(=O)[C@]2(NC(=O)[C@H](CC3(C)CCCC3)NC(=O)N3CCCC3)C[C@H](F)C2)n1` [Example 123, Pyrrolidine-1-carboxylic Acid [1-[3-fluoro-1-(1-methyl-1H-pyrazol-3-ylaminooxalyl)-cyclobutylcarbamoyl]-2-(1-methyl-cyclopentyl)-ethyl]-amide], for which the Ki at human cathepsin S is 0.35 nM; at cathepsin K, 180 nM; on human cathepsin L, 1500 nM.
